# Measured values as given in patent publication US20250319068A1, “TREATMENT OF DISEASES VIA ADMINISTRATION OF BUNTANETAP AND AN […] AGENT” (ANNOVIS BIO, INC., priority 2024, published 2025).
# Entries after “also recorded” stand apart in the source; their conditions may differ. Like-named read-outs stand apart in the source and are kept apart here.
# Tests used:
# [1] = test system: dementia with Lewy bodies (DLB) in men; settings: cited from earlier work; for risk of DLB lower compared to 5ARIs / risk of DLB lower compared to tamsulosin: terazosin, doxazosin, or alfuzosin pooled
# APP [2] = experiment: APP in vitro, Western blot in SH-SY-5Y cells (FIG. 1); assay type: cell-based; settings: SH-SY-5Y human neuroblastoma cells; 0, 0.1, 1, 5 and 10 μM
# APP and its fragments [3] = experiment: APP in vivo in APP/PS1 transgenic AD mice, hippocampus (FIG. 2A); parameters: species or system mouse
# Description: FIG. 2A is a Table, collection of graphs and a Western blot showing that buntanetap treatment of APP/PS1 transgenic AD mice reduced APP and its fragments in hippocampus.
# FIG. 2A, APP in vivo. […] GAPDH and Synaptophysin were loading controls. FIG. 2 also includes a collection of graphs showing relative density of APP plotted against control and time after buntanetap treatment; relative density of CTFβ plotted against control and time after buntanetap treatment; relative density of CTFα plotted against control and time after buntanetap treatment; Aβ42 levels in brain tissue plotted against control and time after buntanetap treatment; and Aβ40 levels in brain tissue plotted against control and time after buntanetap treatment. Finally, FIG. 2 also includes a Western blot showing levels of APP, NSB, CTFβ, and CTFα after buntanetap treatment over time (minutes).
# [4] = test system: patients with mild to moderate AD; experiment: Phase II/III trial in mild to moderate AD, 12 weeks (NCT05686044); assay type: in vivo, human
# Protocol: A randomized, double-blind, placebo-controlled Phase II/III study trial investigating the efficacy, safety, and tolerability of buntanetap in patients with mild to moderate AD was conducted. This was a dose-ranging study where patients received either one of three doses of buntanetap (7.5 mg, 15 mg, or 30 mg) or placebo on top of their standard of care for 12 weeks. In this study, over 700 patients were screened, a total of 353 patients were enrolled, and 325 patients completed the study across 54 sites in the US. The study included mild to moderate AD patients whose Mini Mental State Examination (MMSE) scores at baseline ranged from 14 to 24. (www.clinicaltrials.gov (NCT05686044)).
# Beyond safety, the trial assessed the changes in two co-primary endpoints: Alzheimer's Disease Assessment Scale-Cognitive Subscale 11 (ADAS-Cog 11) and Alzheimer's Disease Cooperative Study Clinician's Global Impression of Change (ADCS-CGIC), which assess cognition and activities of daily living. The study monitored for safety and collected plasma to measure several biomarkers to assess the disease state, potential disease progression, and treatment effects.
# The treatment response in the current study was not related to a patient's age or sex.
# EOT-End of Treatment *P<0.05; **P<0.01; ***P<0.001.
# When the baseline MMSE scores for patients positive for AD according to their pTau217/tTau >4.2% ratio were subdivided, a dose-dependent relationship to MMSE at baseline was observed. It was concluded that the response to buntanetap treatment is more pronounced in mild AD patients than in those with more advanced AD. The response in the 30 mg dose treatment group R2=0.17 (R^2 or the coefficient of determination), p <0.001, indicates statistical significance of the MMSE score, which was not evident in the placebo group.
# [5] = cited from earlier work
# [6] = test system: CSF levels of sAPPα, sAPPβ, Aβ42, Tau (total and phosphorylated), alpha-synuclein and inflammatory markers; settings: cited from earlier work
# [7] = test system: early AD patients and early PD patients; settings: cited from earlier work
# APP [8] = settings: neuroblastoma cells; cited from earlier work
# APP and its fragments [9] = settings: APP/PS1 transgenic mice; cited from earlier work
# tau [10] = settings: unpublished observation, Peter Davies Laboratory; cited from earlier work
# tau [11] = settings: Human tau mice; unpublished observation; cited from earlier work
# αSYN [12] = settings: neuroblastoma cells; cited from earlier work
# αSYN [13] = settings: transgenic Parkinson's animals; cited from earlier work
# [14] = test system: human SNCAA53T tg mouse model of PD; settings: cited from earlier work
# [15] = test system: APP/PS1 transgenic (tg) mouse model of AD; settings: cited from earlier work
# [16] = test system: Ts65dn mouse model of Down Syndrome (DS); settings: cited from earlier work
# rat acute glaucoma model = settings: cited from earlier work
# [17] = test system: traumatic brain injury rats; settings: cited from earlier work
# [18] = test system: fully differentiated Down syndrome nerve cells; settings: cited from earlier work
# Huntingtin Protein = settings: through Translational Suppression; cited from earlier work
# [19] = test system: CSF levels of sAPPα, sAPPβ, Aβ42, Tau (total and phosphorylated), alpha-synuclein and inflammatory markers; experiment: Study of MCI subjects: CSF biomarkers before and after 10 days of buntanetap; settings: before and after 10 days of administration
# Description: FIG. 3 is a study of subjects with mild cognitive impairment (MCI) for early proof of mechanism (POM) using a well-tolerated dose of buntanetap. Before and after 10 days of buntanetap administration to the MCI subjects, plasma, and cerebrospinal fluid (CSF) samples were obtained for analysis of levels of secreted(s) APPα and APPβ, and Aβ42, Tau (total and phosphorylated), and inflammatory markers.
# [20] = Phase 1 single and multiple ascending dose safety, tolerance, pharmacokinetic studies; settings: pharmacokinetic analyses of Phase I studies
# Protocol: This publication reported the results of a Phase 2a Clinical Study which was a double-blind, placebo-controlled, multi-center study of 14 early AD patients and 54 early PD patients. AD patients were given either 80 mg buntanetap or placebo QD. PD patients were given 5 mg, 10 mg, 20 mg, 40 mg, 80 mg buntanetap or placebo QD. The primary endpoint was safety and tolerability; secondary endpoint is pharmacokinetics of buntanetap in plasma.
# The double phase 2 clinical trial recruited 14 AD (Alzheimer's disease) and 54 patients and treated them over 25 with a once daily dose of buntanetap. The 14 AD patients receive either 80 mg QD or placebo, whereas the 54 PD (Parkinson's disease) patients received 5, 10 20, 40 80 mg QD or placebo.
# [21] = clinical studies; cited from earlier work
# [22] = men newly started on terazosin, doxazosin, or alfuzosin (pooled) vs matched men taking tamsulosin
structure (smiles),measurement,setting,value
COc1cc2nc(N3CCN(C(=O)C4COc5ccccc5O4)CC3)nc(N)c2cc1OC (stereo not drawn) [doxazosin],hazard ratio [HR] of developing DLB,[1]; [22],0.60
same,risk of DLB lower compared to 5ARIs,[1],37%
same,risk of DLB lower compared to tamsulosin,[1],40%
same,hazard ratio [HR] of developing DLB,[1]; vs matched men taking 5ARI,0.73
"CN1CC[C@]2(C)c3cc(OC(=O)Nc4ccccc4)ccc3N(C)C12 (stereo partly drawn) [Buntanetap, (3aR)-1,3a,8-trimethyl-1,2,3,3a,8,8a-hexahydropyrrolo[2,3-b]indol-5-yl phenylcarbamate]",APP in relation to Actin standard (Western blot),APP [2],lowers APP in vitro in a dose-dependent manner
same,duration of reduction of APP and all related peptides in hippocampus after the last dose,APP and its fragments [3]; APP/PS1 mice,at least 9 hours
same,APP and its fragments in hippocampus,APP and its fragments [3]; APP/PS1 transgenic AD mice,reduced
same,Non-Responders (Number),[4]; 7.5 mg,5
same,Non-Responders (Percentage),[4]; 7.5 mg,(26.32%)
same,Responders (Number),[4]; 7.5 mg,14
same,Responders (Percentage),[4]; 7.5 mg,(73.68%)**
same,Non-Responders (Number),[4]; 15 mg,7
same,Non-Responders (Percentage),[4]; 15 mg,(28.00%)
same,Responders (Number),[4]; 15 mg,18
same,Responders (Percentage),[4]; 15 mg,(72.00%)**
same,Non-Responders (Number),[4]; 30 mg,3
same,Non-Responders (Percentage),[4]; 30 mg,(12.50%)
same,Responders (Number),[4]; 30 mg,21
same,Responders (Percentage),[4]; 30 mg,(87.50%)***
same,difference in the proportion of participants who improved relative to placebo,[4]; 30 mg group,three-fold difference
same,ADAS-Cog 11 scores relative to placebo,"[4]; patients with mild AD, each treatment dose",significantly higher improvement
same,tolerability,"[5]; healthy human volunteers, doses up to 4×60 mg daily X 10 days",well tolerated
same,terminal half-life,"[5]; plasma, cleared biphasically",4.3 to 4.7 h
same,duration of effect in lowering neurotoxic proteins and inflammation after the last dose,[6]; CSF sampling period after the last dose,≥ 12 h
same,"levels of APP, Tau, and αSYN in the cerebrospinal fluid (CSF)","[6]; MCI subjects, 4×60 mg/day",normalized
same,half-life in CSF,[6]; MCI subjects,> 12 h
same,inflammation in human CSF,[6]; MCI subjects,lowered inflammation
same,CSF Aβ42,[6]; five MCI subjects,trend to lower
same,"CSF levels of sAPPα, sAPPβ, t-tau, p-tau, and specific inflammatory markers",[6]; five MCI subjects,significantly lowered
same,axonal integrity and synaptic function,[7]; AD and PD cohorts,improving; also recorded: improved
same,inflammatory factors / markers,[7]; AD and PD cohorts,trend in lowering levels; also recorded: reduced
same,neurotoxic protein biomarkers,[7]; AD and PD cohorts,trend in lowering levels; also recorded: reduced
same,safety and tolerability,"[7]; AD and PD patients, doses up to 80 mg",well tolerated; also recorded: safe and promising
same,crossing of the blood brain barrier,[7]; AD and PD patients,crossed the blood brain barrier
same,ADAS-Cog11 and WAIS coding (cognition),"[7]; AD patients, 80 mg QD",statistically significant improvements; also recorded: improved cognition
same,"motor function as measured by MDS-UPDRS (Part II, III, IV and total)","[7]; PD patients, 5-80 mg QD, maximum improvement for 10 & 20 mg",improved at all doses motor function
same,MDS-UPDRS and WAIS coding,[7]; PD patients,statistically significant improvements
same,WAIS speed and accuracy,[7]; PD patients,improved
same,Cmax and AUC,"[7]; plasma, up to 80 mg QD",increased with dose without evidence for a plateau
same,levels of APP in vitro,APP [8],lowers levels of APP
same,levels of APP and all its fragments,APP and its fragments [9],lowers levels of APP and all its fragments
same,tau in vitro,tau [10],lowers tau
same,tau in vivo,tau [11],lowers tau
same,αSYN in vitro,αSYN [12],lowers αSYN
same,αSYN in vivo in the brain and in the gut,αSYN [13],lowers αSYN
same,colonic motility,[14],Restored colonic motility
same,synaptic transmission in hippocampus,[15]; APP/PS1 tg mice,Normalized impaired synaptic transmission
same,memory and learning,[15]; APP/PS1 tg mouse model of AD,Restored memory and learning
same,memory and learning,[16],Restored memory and learning
same,retina,rat acute glaucoma model; acute glaucoma,Preserved the retina
same,nerve cell protection,rat acute glaucoma model; rat acute glaucoma model,protected nerve cells
same,inflammation in the rat brain,[17]; after TBI,lowered inflammation
same,nerve cell protection in rat substantia Ingra,[17]; after TBI,protected nerve cells
same,synaptic transmission in rat striatum,[17]; after traumatic brain injury (TBI),Normalized impaired synaptic transmission
same,memory and learning,[17]; traumatic brain injury rats,Preserved memory and learning
same,anterograde and retrograde vesicle transport,[18],Normalized anterograde and retrograde vesicle transport
same,levels of Huntingtin Protein,Huntingtin Protein,reduced the levels of Huntingtin Protein
same,"APP/Aβ, tau/phosphor-tau and alpha-synuclein in the spinal fluid (FIG. 3)",[19],normalized
same,brain concentration relative to plasma,[20],about 8 times
CCOc1ccccc1OCCN[C@H](C)Cc1ccc(OC)c(S(N)(=O)=O)c1 [tamsulosin],hazard ratio [HR] of developing DLB,[1]; vs matched men taking 5ARI,1.17
COc1cc2nc(N3CCN(C(=O)C4CCCO4)CC3)nc(N)c2cc1OC (stereo not drawn) [terazosin],hazard ratio [HR] of developing DLB,[1]; [22],0.60
same,risk of DLB lower compared to 5ARIs,[1],37%
same,risk of DLB lower compared to tamsulosin,[1],40%
same,hazard ratio [HR] of developing DLB,[1]; vs matched men taking 5ARI,0.73
"CN1CC[C@@]2(C)c3cc(OC(=O)Nc4ccccc4)ccc3N(C)[C@@H]12 [phenserine, (−)-N-phenylcarbamoyl eseroline]",side effects,[21],high cholinomimetic side effects
COc1cc2nc(N(C)CCCNC(=O)C3CCCO3)nc(N)c2cc1OC (stereo not drawn) [alfuzosin],hazard ratio [HR] of developing DLB,[1]; [22],0.60
same,risk of DLB lower compared to 5ARIs,[1],37%
same,risk of DLB lower compared to tamsulosin,[1],40%
same,hazard ratio [HR] of developing DLB,[1]; vs matched men taking 5ARI,0.73
